Where a name gives a salt, the structure may show the parent alone. Read-outs that look alike come from different tables or passages of the source.
Experiments:
[1] = tested on: patients hospitalized for acute heart failure (AHF); experiment: Self-reported dyspnoea by visual analogue scale (VAS); format: in vivo, human
Protocol: (§1) The primary efficacy endpoint was the change from baseline to 24 h after the start of the infusion in the E/e ratio assessed by tissue Doppler echocardiography. Secondary endpoints included the change from baseline to 24 h of other echocardiography parameters: LVEF, left ventricular end-systolic and end-diastolic volumes, stroke volume index, E, A, E/A ratio, and S′: changes in dyspnoea by visual analogue scale (VAS) and in NT-proBNP from baseline to 24 h: proportion of patients with hospital readmissions or emergency visits for cardiovascular reasons by day 30; proportion of patients with episodes of in-hospital worsening heart failure to day 4, and length of stay. In-hospital worsening heart failure was defined by the need to increase the dose or reinitiate intravenous therapy with diuretics and/or other inotropic agents to day 4. Safety endpoints were assessed throughout the study and included: incidence of adverse events (AEs): change in vital signs and in 12-lead electrocardiographic (ECG) parameters: incidence of clinically or haemodynamically significant episodes of supraventricular or ventricular arrhythmias detected by continuous ECG monitoring: standard laboratory parameters: renal function: cardiac troponin T (cTnT): incidence of cTnT elevations, and mortality at day 30. Elevations in cTnT were considered significant if they were >50% or >20% from baseline values, for patients with cTnT below or above the 99% upper reference limit at baseline, respectively.
(§2) The study design included a 24 h screening period, a 24 h study drug infusion phase (day 1), a post-treatment phase (days 2-4), and a follow-up visit at day 30 (FIG. 5). Patients could be enrolled at any time after admission. The use of oral medications was permitted during the study with the exception of digoxin. Intravenous diuretics were permitted during the treatment period at stable doses, unless changes were required due to clinically relevant variations of the patient's condition. If treatment with an inotrope was clinically necessary during the infusion period, the investigational product was discontinued. Echocardiography was performed according to international standards at screening, baseline (just before starting study drug infusion), 6, 24 h (just before infusion end), and 48 h after infusion start. Echocardiographic measurements at baseline, 6, 24, and 48 h were evaluated in a blinded fashion by a CoreLab located at the University and Civil Hospital of Brescia, Italy. E/e′ ratio was calculated as the ratio between the peak early diastolic mitral flow velocity (E wave) and the mean of the annular lateral (e′ lateral) and septal (e′ septal) velocities, according to standard guidelines.^20 Intraobserver and interobserver variability in E/e′ measurement was tested on the 15% of the recordings and is shown in FIG. 6. Self-reported dyspnoea was assessed using a 100 mm VAS, with zero representing the worst level of dyspnoea and […] the best breathing condition. Twenty-four hour ECG monitoring was performed using a three-lead device (Mortara industries, Milwaukee, WI, USA) during the day of screening, the infusion period, and the day after (the latter was optional). Analysis was conducted by a blinded CoreLab (ICS Maugeri, Italy). Serial measurements of NT-proBNP throughout the study were analyzed by a central laboratory (Elecsys® proBNP II, Roche®, Basel, Switzerland). Samples for cTnT were taken at baseline, 3, 6, 12, 24, 48, and 72 h and on day 30, and were analyzed by a core laboratory (Elecsys® high-sensitivity assay, Roche®, Basel, Switzerland). AEs were monitored throughout the duration of the study.
(§3) The study was designed as a mechanistic and safety study to assess the effects of a 24 h istaroxime infusion in patients hospitalized for AHF. […]

[2] = tested on: patients hospitalized for acute heart failure (AHF); experiment: NT-proBNP serial measurements (Elecsys proBNP II); format: in vivo, human
Protocol: as §1, §2, §3

[3] = tested on: patients hospitalized for acute heart failure (AHF); parameters: species or system human; conditions: in vivo
Protocol: as §1, with “In-hospital worsening heart failure was defined by the need to increase the dose or reinitiate intravenous therapy with diuretics and/or other inotropic agents to day 4.” left out, “Elevations in cTnT were considered significant if they were >50% or >20% from baseline values, for patients with cTnT below or above the 99% upper reference limit at baseline, respectively.” left out
The study design included a 24 h screening period, a 24 h study drug infusion phase (day 1), a post-treatment phase (days 2-4), and a follow-up visit at day 30 (FIG. 5). […] AEs were monitored throughout the duration of the study. […]

[4] = tested on: patients hospitalized for acute heart failure (AHF); parameters: species or system human; conditions: in vivo; remark: listed apart in the source
Protocol: as §1, with “Elevations in cTnT were considered significant if they were >50% or >20% from baseline values, for patients with cTnT below or above the 99% upper reference limit at baseline, respectively.” left out

[5] = tested on: patients hospitalized for acute heart failure (AHF); parameters: species or system human; conditions: in vivo; remark: listed apart in the source
Protocol: as §1, with “In-hospital worsening heart failure was defined by the need to increase the dose or reinitiate intravenous therapy with diuretics and/or other inotropic agents to day 4.” left out, “Elevations in cTnT were considered significant if they were >50% or >20% from baseline values, for patients with cTnT below or above the 99% upper reference limit at baseline, respectively.” left out
The study design included a 24 h screening period, a 24 h study drug infusion phase (day 1), a post-treatment phase (days 2-4), and a follow-up visit at day 30 (FIG. 5). […] AEs were monitored throughout the duration of the study.

[6] = tested on: patients hospitalized for acute heart failure (AHF); experiment: Adverse events, serious adverse events, laboratory safety and mortality to day 30; format: in vivo, human
Protocol: as §1
as §2, with “Twenty-four hour ECG monitoring was performed using a three-lead device (Mortara industries, Milwaukee, WI, USA) during the day of screening, the infusion period, and the day after (the latter was optional). Analysis was conducted by a blinded CoreLab (ICS Maugeri, Italy).” left out, “study. […]” for “study.”

[7] = tested on: patients hospitalized for acute heart failure (AHF); conditions: intention-to-treat analysis, Carubelli et al., cited from earlier work
[8] = tested on: patients hospitalized for acute heart failure (AHF); conditions: 1.0 μg/kg/min group; Carubelli et al.; cited from earlier work
[9] = intravenous infusion; cited from earlier work
[10] = istaroxime 1.0 μg/Kg/min (n = 40), 30-day follow-up period

C[C@]12CCC(=NOCCN)C[C@@H]1C(=O)C[C@@H]1[C@@H]2CC[C@]2(C)C(=O)CC[C@@H]12 [Istaroxime, (E,Z)-3-((2-aminoethoxy)imino)androstane-6,17-dione hydrochloride]
Dyspnoea VAS score, mean change from baseline ([1]; 0.5 μg/Kg/min, 3 hours): 4.113
Dyspnoea VAS score, mean change from baseline ([1]; 0.5 μg/Kg/min, 6 hours): 6.582
Dyspnoea VAS score, mean change from baseline ([1]; 0.5 μg/Kg/min, 12 hours): 6.772
Dyspnoea VAS score, mean change from baseline ([1]; 0.5 μg/Kg/min, 24 hours): 9.276
Dyspnoea VAS score, mean change from baseline ([1]; 0.5 μg/Kg/min, 48 hours): 10.948
Dyspnoea VAS score, mean change from baseline ([1]; 1.0 μg/Kg/min, 3 hours): 4.212
Dyspnoea VAS score, mean change from baseline ([1]; 1.0 μg/Kg/min, 6 hours): 8.637
Dyspnoea VAS score, mean change from baseline ([1]; 1.0 μg/Kg/min, 12 hours): 9.076
Dyspnoea VAS score, mean change from baseline ([1]; 1.0 μg/Kg/min, 24 hours): 13.332
Dyspnoea VAS score, mean change from baseline ([1]; 1.0 μg/Kg/min, 48 hours): 10.075
NT-proBNP, median change from baseline ([2]; 0.5 μg/Kg/min, 24 hours): 120 pg/mL
NT-proBNP, median change from baseline ([2]; 0.5 μg/Kg/min, 48 hours): -431 pg/mL
NT-proBNP, median change from baseline ([2]; 0.5 μg/Kg/min, 72 hours): -802 pg/mL
NT-proBNP, median change from baseline ([2]; 1.0 μg/Kg/min, 24 hours): -214 pg/mL
NT-proBNP, median change from baseline ([2]; 1.0 μg/Kg/min, 48 hours): -563 pg/mL
NT-proBNP, median change from baseline ([2]; 1.0 μg/Kg/min, 72 hours): -528 pg/mL
cardiac troponin absolute values [3]: No significant changes
Renal function measured by eGFR [4]: generally increased
clinically significant arrhythmias, 24 h Holter monitoring [5]: no differences
Mortality within the 30-day study period ([6]; 1.0 μg/kg/min group, cardiogenic shock): One patient died
rate of SAEs ([6]; in vivo): did not show meaningful differences
rate of injection site reactions ([6]; in vivo, iv): high
Serious adverse events: Cardiac death [6, 10]: 1 number of patients
Serious adverse events: Cardiac death, percent of patients [6, 10]: (2.5) %
mean change in E/e′ ratio at 24 h ([7]; 0.5 μg/kg/min): −4.55 (4.75)
mean change in E/e′ ratio at 24 h ([7]; 1.0 μg/kg/min): −3.16 (2.59)
Serious adverse events, percent [8]: 15%
half-time (washout after infusion termination) [9]: 60 min

From patent US12697343B2, “Intravenous istaroxime for the treatment of acute heart failure” (Seismic Pharmaceuticals Operations LLC, priority 2021, dated 2026)
